Measured values from patent US12422427B2, “Compounds for treatment of diseases and methods of screening therefor” (Max-Planck-Gesellschaft zur Förderung der Wissenschaften …, priority 2018, dated 2025).
Where a chain is given by its changes, count along the chain named.

Experiments:
FUS GFP = molecular target: T1, FUS GFP (Homo sapiens, UniProt P35637); assay: Salt (KCl) sensitivity of FUS GFP droplet formation in vitro; format: biochemical; conditions: 100 μM compound, 2.8 μM FUS GFP
T1 construct: His MBP (N, cleaved yes); made in house; host or cells: baculovirus/insect cell expression system
T1 sequence (P35637 1-526): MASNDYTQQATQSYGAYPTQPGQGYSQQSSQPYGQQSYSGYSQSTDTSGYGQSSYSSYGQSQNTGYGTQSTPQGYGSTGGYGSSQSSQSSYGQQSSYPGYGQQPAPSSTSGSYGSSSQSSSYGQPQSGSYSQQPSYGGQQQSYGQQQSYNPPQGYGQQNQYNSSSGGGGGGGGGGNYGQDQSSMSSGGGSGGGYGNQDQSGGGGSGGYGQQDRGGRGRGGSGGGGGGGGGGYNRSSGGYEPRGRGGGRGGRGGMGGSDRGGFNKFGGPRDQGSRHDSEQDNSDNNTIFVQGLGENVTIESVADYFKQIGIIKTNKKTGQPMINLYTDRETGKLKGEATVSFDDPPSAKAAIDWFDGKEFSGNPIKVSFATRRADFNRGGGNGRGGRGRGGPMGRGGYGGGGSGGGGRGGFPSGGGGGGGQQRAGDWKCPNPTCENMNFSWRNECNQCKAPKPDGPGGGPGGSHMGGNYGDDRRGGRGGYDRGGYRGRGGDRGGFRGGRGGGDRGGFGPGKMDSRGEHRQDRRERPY
Procedure: FIG. 6A) Droplets formed by 2.8 μM FUS GFP in vitro with different concentrations of KCl (which inhibits droplet formation) with 100 μM lipoamide, lipoic acid or equivalent DMSO solvent control (1%). Lipoamide and lipoic acid subtly promote droplet formation. FIG. 6B) Effect of lipoamide and lipoic acid on G156E FUS GFP droplet ‘aging’ while shaking, relative to an equivalent DMSO solvent control (0.3%). Both compounds delay fibre formation. FIG. 6C) Representative fluorescence recovery after photobleaching (FRAP) of FUS droplets and fibres formed during the aging shown in FIG. 6B). Aged droplets treated with lipoamide or lipoic acid retain fast FRAP indicating liquidity. FIG. 6D) Quantitation of fluorescence signal intensity illustrated in FIG. 6C). Error bars represent standard deviation.
It was determined if lipoic acid or lipoamide affected the conditions under which FUS would phase separate in vitro. […]
For in vitro solidification assays, FUS GFP in storage buffer was diluted in water to give 10 μM FUS, 50 mM Tris·HCl pH 7.4 and 1 mM DTT in a 20 μl volume in non-binding clear bottom 384 well plates (Greiner Bio-One, 781906). […] Fibre and droplet formation were analysed by widefield epifluorescence using a DeltaVision Elite microscope (GE Healthcare Life Sciences) with a Plan ApoN 60× NA 1.4 oil immersion objective (Olympus) and an sCMOS camera (PCO). […]

G156E FUS GFP = molecular target: T2, G156E FUS GFP (Homo sapiens, UniProt P35637, G156E); assay: In vitro FUS GFP solidification (aging, fibre formation, FRAP); format: biochemical; conditions: for fibre formation of G156E FUS / hardening of FUS droplets (FRAP mobile fraction): 30 μM, aging while shaking, 1 mM DTT
T2 construct: His MBP (N, cleaved yes); made in house; host or cells: baculovirus/insect cell expression system
T2 sequence (P35637 1-526 G156E): T1 sequence (P35637 1-526) with G156E
Procedure: Therefore, hardening and fibre formation, another kinetic phenomenon, were analysed. In vitro FUS droplets ‘age’ over time, first hardening then tending to form amyloid/prion-like fibres. This is accelerated for G156E FUS, a mutation associated with familial ALS.
For in vitro solidification assays, FUS GFP in storage buffer was diluted in water to give 10 μM FUS, 50 mM Tris·HCl pH 7.4 and 1 mM DTT in a 20 μl volume in non-binding clear bottom 384 well plates (Greiner Bio-One, 781906). […] Fibre and droplet formation were analysed by widefield epifluorescence using a DeltaVision Elite microscope (GE Healthcare Life Sciences) with a Plan ApoN 60× NA 1.4 oil immersion objective (Olympus) and an sCMOS camera (PCO). For salt sensitivity of droplet formation FUS GFP in storage buffer was diluted in the appropriate concentration of KCl pre-mixed with compound or DMSO to generate the final KCl concentration series with 30 μM compound concentration and 0.3% DMSO.
Fluorescence recovery after photobleaching (FRAP) of FUS GFP droplets and fibres was performed on a Nikon TiE inverted microscope with a Nikon Apo 100× NA 1.49 oil immersion objective using a Yokogawa CSU-X1 spinning disc head and an Andor iXon EM+ DU-897 EMCCD camera. 10×10 px regions were bleached for […] with a 6 mW 405 nm laser using an Andor FRAPPA beam delivery unit then imaged for 5 min at 5 Hz. Recovery curve half-life and mobile fraction were calculated in ImageJ.

SMILES: NC(=O)CCCCC1CCSS1 (racemic) [lipoamide, 5-(1,2-dithiolan-3-yl)pentanamide]
- conditions (KCl concentration) under which FUS phase separates (FUS GFP): slightly increasing the minimum KCl concentration at which phase separation would occur
- FRAP of aged G156E FUS GFP condensates (G156E FUS GFP; 10 μM lipoamide, dextran crowding, vs 0.1% DMSO): maintain large FUS GFP mobile fraction and short FRAP half-life
- fibre formation of G156E FUS (G156E FUS GFP): delayed fibre formation
- hardening of FUS droplets (FRAP mobile fraction) (G156E FUS GFP): delayed hardening of FUS droplets

SMILES: O=C(O)CCCCC1CCSS1 (racemic) [lipoic acid, 5-(1,2-dithiolan-3-yl)pentanoic acid]
- conditions (KCl concentration) under which FUS phase separates (FUS GFP): slightly increasing the minimum KCl concentration at which phase separation would occur
- fibre formation of G156E FUS (G156E FUS GFP): delayed fibre formation
- hardening of FUS droplets (FRAP mobile fraction) (G156E FUS GFP): delayed hardening of FUS droplets
